Assay results as given in patent US20250340569A1, “INHIBITORS OF KIF18A AND USES THEREOF” (Insilico Medicine IP Limited, priority 2023, published 2025).

Experiments:
Kif18A = biological target: T1, Kif18A (Homo sapiens, UniProt Q8NI77); assay: KIF18A assay (ADP Glo); settings: biochemical assay, ADP Glo luminescence
T1 sequence (Q8NI77 1-898): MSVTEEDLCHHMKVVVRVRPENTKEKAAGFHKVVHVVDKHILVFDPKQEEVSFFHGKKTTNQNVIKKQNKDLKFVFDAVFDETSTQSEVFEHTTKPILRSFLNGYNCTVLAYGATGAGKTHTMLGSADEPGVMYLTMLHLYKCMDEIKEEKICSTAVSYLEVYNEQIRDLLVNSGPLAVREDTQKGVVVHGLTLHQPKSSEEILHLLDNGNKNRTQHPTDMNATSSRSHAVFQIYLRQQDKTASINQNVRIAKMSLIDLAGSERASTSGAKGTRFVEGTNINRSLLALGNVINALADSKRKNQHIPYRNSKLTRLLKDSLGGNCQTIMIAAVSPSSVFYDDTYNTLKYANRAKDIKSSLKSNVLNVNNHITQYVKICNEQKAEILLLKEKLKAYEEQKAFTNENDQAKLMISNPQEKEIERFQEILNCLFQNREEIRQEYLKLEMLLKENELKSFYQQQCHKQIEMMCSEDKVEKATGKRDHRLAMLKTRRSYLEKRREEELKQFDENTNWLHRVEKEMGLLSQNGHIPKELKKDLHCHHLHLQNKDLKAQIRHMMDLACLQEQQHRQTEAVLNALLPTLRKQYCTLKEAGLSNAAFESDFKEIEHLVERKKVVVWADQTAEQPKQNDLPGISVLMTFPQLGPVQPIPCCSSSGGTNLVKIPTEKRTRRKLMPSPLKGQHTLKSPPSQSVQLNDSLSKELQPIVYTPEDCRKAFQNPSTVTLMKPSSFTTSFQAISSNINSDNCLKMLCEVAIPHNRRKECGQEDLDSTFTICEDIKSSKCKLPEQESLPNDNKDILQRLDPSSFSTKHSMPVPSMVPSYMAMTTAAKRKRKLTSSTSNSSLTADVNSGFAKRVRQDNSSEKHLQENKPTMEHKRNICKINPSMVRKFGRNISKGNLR
Description: The KIF18A assay was performed as follows:
1.1. Prepared 1× Kinase Buffer
• a) Added 40 μL test compound to 384-well dilution plate • b) Diluted compound 1:3 in succession in DMSO for each column for 10 pts • c) Transferred 0.1 μL diluted compound solution to 384 assay plate using Echo, each column containing 2 replicates • d) Added 5 μL enzyme working solution to 384-well assay plate, centrifuge 1000 RPM for 1 min e) Incubated at 25° C. for 15 min • f) Added 5 μL ATP working solution to initiate reaction • g) Incubated at 25° C. for 60 min • h) Added 10 μL ADP Glo reagent, centrifuge 1000 RPM for 1 min • i) Incubated at 25° C. for 60 min • j) Added 20 μL kinase detection reagent, centrifuge 1000 RPM for 1 min • k) Incubated at 25° C. for 60 min • l) Read Luminescence Signal on Envision 2104 plate reader.
1.3. Data Analysis—Calculated IC50 and Plot Dose-Response Curve of Compounds:
Calculated IC50 by fitting % Inhibition values and log of compound concentrations to nonlinear regression (dose response−variable slope) with GraphPad 6.0.
[formula] • X: log of inhibitor concentration; Y: % Inhibition

OVCAR-3 = assay: OVCAR3 CTG assay; assay type: cell-based; settings: Homo sapiens, OVCAR-3, 144 h; CellTiter-Glo, 6 days incubation
Source text: Example B2: OVCAR3 CTG Assay
• a) Preparation of complete medium: Added FBS and appropriate additives according to the information sheet provided by the vendor. Mix gently. • b) Checked the cell name and complete medium and passage number marked on the flask. For adherent cell lines, refer to c to k. For suspension cell lines, refer to g to k. • c) Removed and discarded culture medium using a vacuum pump. • d) Briefly rinsed the cell layer with 0.25% (w/v) Trypsin-0.038% (w/v) EDTA solution to remove all traces of serum that contains trypsin inhibitor. • e) Added 3.0 ml of Trypsin-EDTA solution to flask and observed cells under an inverted microscope until cell layer is dispersed. • f) Added 9.0 ml of complete growth medium and aspirated cells by gently pipetting. • g) Transfered the cell suspension to a centrifuge tube and centrifuged at 1000 rpm for 4 minutes. • h) Discarded the supernatant using a vacuum pump. • i) Added appropriate volume of complete medium. Suspended the cell pellet by gently pipetting. • j) Counted the cell numbers with Vi-cell XR and adjusted cells to appropriate density. • k) Added 190 μL of cell suspension to 96-well opaque-walled clear bottom plates according to the planned plate layout and placed the plates in the CO2 incubator overnight.
2) Compound Stock Preparation:
• a) Plate preparation of testing articles:
The compounds were dissolved in DMSO to prepare 10 mM stock solution. The start working concentration (2 mM) was prepared with DMSO.
b) Staurosporine Plate Preparation:
0.4 mM Staurosporine was prepared in DMSO at working concentration.
The 20× compound containing medium was prepared according to the plate map. 10 μL of 20× compound containing medium was added into each well of the assay plates. Centrifuged at 1000 rpm for 1 minute. The total dilution was 200-fold.
3) Cells were Incubated with the Compounds for 6 Days at 5% CO2, 37° C.
Assay Measurement for CTG Assay
1) Preparation of Reagents
• a) Thawed the CellTiter-Glo buffer and equilibrated to room temperature prior to use. • b) Equilibrated the lyophilized CellTiter-Glo substrate to room temperature prior to use. • c) Transfered the appropriate volume of CellTiter-Glo buffer into the amber bottle containing CellTiter-Glo substrate to reconstitute the lyophilized enzyme/substrate mixture. This formed the CellTiter-Glo reagent. • d) Mixed by gently vortexing, swirling or by inverting the contents to obtain a homogeneous solution. The CellTiter-Glo substrate went into solution easily in less than one minute.
• a) Observed the cell morphology under an inverted microscope after corresponding treatment. • b) Equilibrated the plate and its contents to room temperature for approximately 30 minutes. • c) Added 100 μL of CellTiter-Glo reagent to the assay plate by Multidrop Combi instrument. • d) Mixed contents for 10 minutes on an orbital shaker to induce cell lysis. • e) Allowed the plate to incubate at room temperature for 10 minutes to stabilize luminescent signal. • f) Pasted the clear bottom with white back seal and record luminescence with Envision. The settings should be: Luminescence, measurement time 0.1 s.

SMILES	IC50 (Kif18A) [nM]	IC50 (OVCAR-3) [nM]
Cc1cc2nc(n1)N(C)CC(C)COCC1(C(F)(F)F)CCN(CC1)c1cc(NS(=O)(=O)CCO)ccc1C(=O)N2 (stereo not drawn) [EX35]	10 to 100	100 to 1000
Cc1cc2nc(n1)NC[C@H](C)COCC1(C(F)(F)F)CCN(CC1)c1cc(NS(=O)(=O)CCO)ccc1C(=O)N2 [EX36-A]	10 to 100	10 to 100
Cc1cc2nc(n1)NC[C@@H](C)COCC1(C(F)(F)F)CCN(CC1)c1cc(NS(=O)(=O)CCO)ccc1C(=O)N2 [EX36-B]	10 to 100	< 10
Cc1cc2nc(n1)NCCCCC1(C)CCN(CC1)c1cc(NS(=O)(=O)CCO)ccc1C(=O)N2 [EX37]	< 10	10 to 100
Cc1cc2nc(n1)NCCC(C)OCC1(C)CCN(CC1)c1cc(NS(=O)(=O)CCO)ccc1C(=O)N2 (stereo not drawn) [EX38]	10 to 100	10 to 100
Cc1cc2nc(n1)N(C1CC1)CCCOCC1(C(F)(F)F)CCN(CC1)c1cc(NS(=O)(=O)CCO)ccc1C(=O)N2 [EX45]	10 to 100	100 to 1000
[2H]C([2H])([2H])N1CCCOCC2(C(F)(F)F)CCN(CC2)c2cc(NS(=O)(=O)CCO)ccc2C(=O)Nc2cccc1n2 [EX48]	10 to 100	10 to 100
O=C1Nc2ccc(=O)n(n2)CCCCOCC2(C(F)(F)F)CCN(CC2)c2cc(NS(=O)(=O)CCO)ccc21 [EX50]	10 to 100	10 to 100
Cc1cc2nc(n1)NCC(C)COCC1(C(F)(F)F)CCN(CC1)c1nc(NC(C)(C)CO)ccc1C(=O)N2 (stereo not drawn) [EX55]	10 to 100	10 to 100
C[C@H]1CNc2cccc(n2)NC(=O)c2ccc(NS(=O)(=O)CCO)cc2N2CCC(C(F)(F)F)(CC2)COC1 [EX56-A]	< 10	10 to 100
C[C@@H]1CNc2cccc(n2)NC(=O)c2ccc(NS(=O)(=O)CCO)cc2N2CCC(C(F)(F)F)(CC2)COC1 [EX56-B]	< 10	< 10
CC1CNc2cc(ccn2)NC(=O)c2ccc(NS(=O)(=O)CCO)cc2N2CCC(C(F)(F)F)(CC2)COC1 (stereo not drawn) [EX57]	10 to 100	10 to 100
[2H]C([2H])([2H])N1CCCOCC2(C(F)(F)F)CCN(CC2)c2cc(NS(=O)(=O)CCO)ccc2C(=O)Nc2ccnc1c2 [EX58]	10 to 100	10 to 100
Cc1cc2nc(n1)NCCCCOCC1(C(F)(F)F)CCN(CC1)c1cc(NS(=O)(=O)CCO)ccc1C(=O)N2 [EX59]	10 to 100	10 to 100
[2H]C([2H])([2H])N1CCCOCC2(C(F)(F)F)CCN(CC2)c2cc(NS(=O)(=O)CCO)ccc2C(=O)Nc2cc(C)cc1n2 [EX67]	10 to 100	100 to 1000
CN1CCCOCC2(C(F)(F)F)CCN(CC2)c2nc(NS(=O)(=O)CCO)ccc2C(=O)Nc2cccc1n2 [EX72]	< 10	100 to 1000
CN1CCCOCC2(C(F)(F)F)CCN(CC2)c2cc(NS(=O)(=O)CCO)ccc2C(=O)Nc2ccc(C#N)c1n2 [EX73]	10 to 100	10 to 100
CN1CCCOCC2(C(F)(F)F)CCN(CC2)c2cc(NS(=O)(=O)CCO)ccc2C(=O)Nc2ccnc1n2 [EX74]	< 10	10 to 100
